This passage reports IC50 and Ratio IC50 results from ChEMBL document CHEMBL3407445, “Benzofuran-derived benzylpyridinium bromides as potent acetylcholinesterase inhibitors” (Eur J Med Chem, 2015).

One experiment deals with Acetylcholinesterase (Electrophorus electricus, UniProt O42275). The experiment is described as follows: Inhibition of electric eel AChE using acetylthiocholine substrate by Ellman's reagent based method.
Experiment [1] concerns the target Acetylcholinesterase (Electrophorus electricus) (UniProt O42275). The experiment in a line: Potency index, ratio of IC50 for donepezil to IC50 for compound against electric eel AChE using acetylthiocholine substrate by Ellman's reagent based method. For orientation: In Ellman's method for cholinesterases, released thiocholine reacts with DTNB.

Sequence of Acetylcholinesterase (O42275 whole entry): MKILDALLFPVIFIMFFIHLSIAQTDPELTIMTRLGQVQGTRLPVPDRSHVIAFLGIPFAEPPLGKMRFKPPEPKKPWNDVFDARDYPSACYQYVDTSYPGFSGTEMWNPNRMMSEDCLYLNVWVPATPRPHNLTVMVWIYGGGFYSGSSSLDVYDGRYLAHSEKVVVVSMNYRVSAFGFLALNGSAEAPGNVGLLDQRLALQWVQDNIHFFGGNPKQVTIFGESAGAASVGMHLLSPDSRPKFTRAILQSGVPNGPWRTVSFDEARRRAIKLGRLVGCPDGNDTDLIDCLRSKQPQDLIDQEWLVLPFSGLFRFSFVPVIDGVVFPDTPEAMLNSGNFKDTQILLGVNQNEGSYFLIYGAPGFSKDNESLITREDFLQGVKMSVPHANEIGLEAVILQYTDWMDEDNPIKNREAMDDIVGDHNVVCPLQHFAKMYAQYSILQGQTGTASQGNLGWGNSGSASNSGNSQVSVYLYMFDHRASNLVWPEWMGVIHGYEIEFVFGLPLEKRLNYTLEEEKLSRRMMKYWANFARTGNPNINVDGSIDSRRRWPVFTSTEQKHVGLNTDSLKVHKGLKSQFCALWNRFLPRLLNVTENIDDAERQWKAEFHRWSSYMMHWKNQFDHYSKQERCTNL
Sequence of Acetylcholinesterase (Electrophorus electricus) (O42275 24-633 limits assumed): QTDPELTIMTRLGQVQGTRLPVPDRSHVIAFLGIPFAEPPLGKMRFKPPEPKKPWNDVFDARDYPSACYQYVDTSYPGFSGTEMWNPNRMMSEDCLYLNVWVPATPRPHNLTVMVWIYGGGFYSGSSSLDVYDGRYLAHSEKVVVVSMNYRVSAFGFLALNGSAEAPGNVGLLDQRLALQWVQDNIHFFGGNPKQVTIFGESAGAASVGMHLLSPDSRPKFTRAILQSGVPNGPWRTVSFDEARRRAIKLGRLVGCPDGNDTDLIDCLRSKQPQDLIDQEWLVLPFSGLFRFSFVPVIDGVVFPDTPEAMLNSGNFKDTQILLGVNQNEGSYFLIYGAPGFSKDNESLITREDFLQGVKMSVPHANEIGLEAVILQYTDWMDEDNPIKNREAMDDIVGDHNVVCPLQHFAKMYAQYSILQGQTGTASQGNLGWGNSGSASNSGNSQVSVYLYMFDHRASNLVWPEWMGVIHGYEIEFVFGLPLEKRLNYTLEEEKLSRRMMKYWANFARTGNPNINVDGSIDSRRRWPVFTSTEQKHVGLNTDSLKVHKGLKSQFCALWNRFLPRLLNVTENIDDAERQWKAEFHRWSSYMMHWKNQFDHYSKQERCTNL

`COc1cccc2cc(-c3cc[n+](Cc4cccc(F)c4)cc3)oc12` returned an IC50 against Acetylcholinesterase of 18.9 nM.

At Acetylcholinesterase, `Brc1ccc(C[n+]2ccc(-c3cc4ccccc4o3)cc2)cc1` came in with an IC50 of 16 nM.

In the case of `O=[N+]([O-])c1ccccc1C[n+]1ccc(-c2cc3ccccc3o2)cc1`, at Acetylcholinesterase, the IC50 was 4.9 nM.

On Acetylcholinesterase, `O=[N+]([O-])c1ccc(C[n+]2ccc(-c3cc4ccccc4o3)cc2)cc1` yielded a concentration for half-maximal inhibition (IC50) of 5.8 nM.

As for `COc1cccc2cc(-c3cc[n+](Cc4ccc(Br)cc4)cc3)oc12`, half-maximal inhibition on Acetylcholinesterase (IC50) required 29.5 nM.

With `Fc1cccc(C[n+]2ccc(-c3cc4cc(Br)ccc4o3)cc2)c1`, the concentration for half-maximal inhibition (IC50) against Acetylcholinesterase came to 9.6 nM.

`O=[N+]([O-])c1ccc(C[n+]2ccc(-c3cc4cc(Br)ccc4o3)cc2)cc1`: at Acetylcholinesterase, the 50% inhibitory concentration (IC50) worked out at 8.1 nM.

In turn, `COc1cccc2cc(-c3cc[n+](Cc4cccc(Br)c4)cc3)oc12` displayed a concentration for half-maximal inhibition (IC50) against Acetylcholinesterase of 22.4 nM.

Compound `Cc1cc(C)cc(C[n+]2ccc(-c3cc4ccccc4o3)cc2)c1` came in with a half-maximal inhibitory concentration (IC50) against Acetylcholinesterase of 4.1 nM. In addition, the Ratio IC50 in experiment [1] was 7.

On to `Fc1ccc(C[n+]2ccc(-c3cc4cc(Br)ccc4o3)cc2)cc1`, for which inhibition against Acetylcholinesterase was half-maximal at 8.7 nM (IC50).

In turn, `COc1cccc2cc(-c3cc[n+](Cc4ccc([N+](=O)[O-])cc4)cc3)oc12` yielded a 50% inhibitory concentration (IC50) at Acetylcholinesterase of 10.6 nM.

`Brc1ccc(C[n+]2ccc(-c3cc4cc(Br)ccc4o3)cc2)cc1` displayed an IC50 against Acetylcholinesterase of 31.5 nM.

For the compound `Cc1ccccc1C[n+]1ccc(-c2cc3ccccc3o2)cc1`, on Acetylcholinesterase, the half-inhibitory concentration (IC50) was found to be 6.8 nM.

Take `Brc1ccc2oc(-c3cc[n+](Cc4ccccc4)cc3)cc2c1`: at Acetylcholinesterase, the 50% inhibitory concentration (IC50) is 13.5 nM.

With `COc1cccc2cc(-c3cc[n+](Cc4ccccc4)cc3)oc12`, the half-maximal inhibitory concentration (IC50) on Acetylcholinesterase came to 26.5 nM.

The IC50 is the concentration needed to halve the response being measured.
